Patent US5854204A, “Aβ peptides that modulate β-amyloid aggregation” (priority 1996, dated 1998)

Tests used:
natural β-AP (β-AP1-40) = target: T1, natural β-AP (β-AP1-40) (Homo sapiens, UniProt P05067); test: Optical density (turbidity, A400 nm) aggregation assay; format: biochemical
T1 construct: Natural β-AP (β-AP1-40) was obtained commercially from Bachem (Torrance, Calif.); purchased Bachem (Torrance, Calif.)
Method: In one assay, β-AP aggregation was measured by determining the increase in turbidity of a solution of natural β-AP over time in the absence or presence of various concentrations of the modulator. Turbidity of the solution was quantitated by determining the optical density at 400 nm (A400 nm) of the solution over time.
The aggregation of natural β-AP in the absence of modulator was determined as follows. β-AP1-40 was dissolved in hexafluoro isopropanol (HFIP; Aldrich Chemical Co., Inc.) at 2 mg/ml. Aliquots of the HFIP solution (87 μl) were transferred to individual 10 mm×75 mm test tubes. A stream of argon gas was passed through each tube to evaporate the HFIP. To the resulting thin film of peptide, dimethylsulfoxide (DMSO; Aldrich Chemical Co., Inc.) (25 μl) was added to dissolve the peptide. A 2 mm×7 mm TEFLON™-coated magnetic stir bar was added to each tube. Buffer (475 μL of 100 mM NaCl, 10 mM sodium phosphate, pH 7.4) was added to the DMSO solution with stirring. The resulting mixture was stirred continuously and the optical density was monitored at 400 nm to observe the formation of insoluble peptide aggregates.
Alternatively, β-AP1-40 was dissolved in DMSO as described above at 1.6 mM (6.9 mg/ml) and aliquots (25 μl) were added to stirred buffer (475 μl), followed by monitoring of absorbance at 400 nm. […]

β-AP1-40 = target: T2, β-AP1-40 (Homo sapiens, UniProt P05067); test: Static aggregation assay (SDS-PAGE); format: biochemical
T2 construct: Natural β-AP (β-AP1-40) was obtained commercially from Bachem (Torrance, Calif.); purchased Bachem (Torrance, Calif.)
Method: In a third assay, β-AP aggregation was measured by visualization of the peptide aggregates using SDS-polyacrylamide gel electrophoresis (SDS-PAGE). In this assay, β-AP solutions were allowed to aggregate over a period of time and then aliquots of the reaction were run on a standard SDS-PAGE gel. Typical solution conditions were 200 μM of β-AP1-40 in PBS at 37° C. for 8 days or 200 μM β-AP1-40 in 0.1M sodium acetate at 37° C. for 3 days. The peptide aggregates were visualized by Coomassie blue staining of the gel or, for β-AP solutions that included a biotinylated β-AP modulator, by western blotting of a filter prepared from the gel with a streptavidin-peroxidase probe, followed by a standard peroxidase assay. The β-AP aggregates are identifiable as high molecular weight, low mobility bands on the gel, which are readily distinguishable from the low molecular weight, high mobility β-AP monomer or dimer bands.

Aβ1-40 [1] = target: T3, Aβ1-40 (Homo sapiens, UniProt P05067);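 further: Aβ nucleation assay tracking fiber polymerization from monomer by turbidity (light scattering), shaken continuously in 96-well plates, read every 15 min over 5 h, compared with compound-free control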
Description: (§1) The nucleation assay is employed to determine the ability of test compounds to alter (e.g. inhibit) the early events in formation of β-AP fibers from monomeric β-AP. […] The time delay before polymerization of β-AP monomer can be quantified as well as the extent of formation of insoluble fiber by light scattering (turbidity). Polymerization reaches equilibrium when the maximum turbidity reaches a plateau. […] The threshold of sensitivity for the measurement of turbidity is in the range of 15-20 μM β-AP. […] This assay can be performed using stirring or shaking to accelerate polymerization, thereby increasing the speed of the assay. Moreover the assay can be adapted to a 96-well plate format to screen multiple compounds.
(§2) HFIP-solubilized peptide is sonicated in a waterbath sonicator for 5 min at highest setting, then evaporated to dryness under a stream of argon. […] Test compounds are dissolved in DMSO at a 100× concentration. […] Ten microliters of the mixture is then added to the bottom of a well of a Corning Costar ultra low binding 96-well plate (Corning Costar, Cambridge Mass.; cat. No. 2500). […] The plate is then returned to the shaker and shaken continuously for 5 hours. Turbidity readings are taken at 15 minute intervals.
(§3) Accordingly a fold increase in lag time of 1.0 indicates no change in lag time, whereas numbers >1.0 indicate an increase in lag time. The "% inhibition of plateau", which is a measure of the ability of the compound to decrease the total amount of aggregation, refers to the reduction of the final turbidity in the presence of the test compound expressed as a percent of the control without the test compound.

Aβ1-40 [2] = target: T3, Aβ1-40; test: biochemical; details: read-out: % Inucl'n (percent reduction in maximum turbidity)
Description: as §1, §2, §3

Aβ1-40 [3] = target: T3, Aβ1-40; test: Seeded extension assay (thioflavin T fluorescence); format: biochemical; set-up: Natural β-AP (β-AP1-40) was obtained commercially from Bachem (Torrance, Calif.); purchased Bachem (Torrance, Calif.); details: Table V; 25 mole % inhibitor
Method: The seeded extension assay can be employed to measure the rate of Aβ fiber formed in a solution of Aβ monomer following addition of polymeric Aβ fiber "seed". The ability of test compounds to prevent further deposition of monomeric Aβ to previously deposited amyloid is determined using a direct indicator of β-sheet formation using fluorescence. In contrast with the nucleation assay, the addition of seed provides immediate nucleation and continued growth of preformed fibrils without the need for continuous mixing, and thus results in the absence of a lag time before polymerization starts. Since this assay uses static polymerization conditions, the activity of positive compounds in the nucleation assay can be confirmed in this second assay under different conditions and with an additional probe of amyloid structure.
Samples of the solution are then diluted in thioflavin T (Th-T). The polymer-specific association of Th-T with Aβ produces a fluorescent complex that allows the measurement of the extent of fibril formation (Levine, H. (1993) Protein Science 2:404-410). In particular, association of Th-T with aggregated β-AP, but not monomeric or loosely associated β-AP, gives rise to a new excitation (ex) maximum at 450 nm and an enhanced emission (em) at 482 nm, compared to the 385 nm (ex) and 445 nm (em) for the free dye. Small aliquots of the polymerization mixture contain sufficient fibril to be mixed with Th-T to allow the monitoring of the reaction mixture by repeated sampling. A linear growth curve is observed in the presence of excess monomer. The formation of thioflavin T responsive β-sheet fibrils parallels the increase in turbidity observed using the nucleation assay.
To prepare the stock seed, 1 ml of the Aβ monomer preparation, is incubated for approximately 8 days at 37° C. and sheared sequentially through an 18, 23, 26 and 30 gauge needle 25, 25, 50, and 100 times respectively. 2 μl samples of the sheared material is taken for fluorescence measurements after every 50 passes through the 30 gauge needle until the fluorescence units (FU) plateau (approx. 100-150×). Test compounds are prepared by dissolving an appropriate amount of test compound in 1× PBS to a final concentration of 1 mM (10× stock). If insoluble, the compound is dissolved in 1/10 volume of DMSO and diluted in 1× PBS to 1 mM. A further 1/10 dilution is also prepared to test each candidate at both 100 μM and 10 μM.
To perform the seeded extension assay, each sample is set up with 50 μl of 200 μM monomer, 125 FU sheared seed (a variable quantity dependent on the batch of seed, routinely 3-6 μl) and 10 μl of 10× modulator solution. The sample volume is then adjusted to a final volume of 100 μl with 1× PBS. Two concentrations of each modulator typically are tested: 100 μM and 10 μM, equivalent to a 1:1 and a 1:10 molar ratio of monomer to modulator. The controls include an unseeded reaction to confirm that the fresh monomer contains no seed, and a seeded reaction in the absence of any modulators, as a reference to compare against candidate modulators. The assay is incubated at 37° C. for 6 h, taking 2 μl samples hourly for fluorescence measurements. To measure fluorescence, a 2 μl sample of Aβ is added to 400 μl of Thioflavin-T solution (50 mM Potassium Phosphate […] pH 7.5). The samples are vortexed and the fluorescence is read in a 0.5 ml micro quartz cuvette at EX 450 nm and EM 482 nm (Hitachi 4500 Fluorimeter).
The modulators were evaluated in the nucleation and seeded extension assays described in Example 6 and the results are summarized below in Table V. The change in lag time (ΔLag) is presented as the ratio of the lag time observed in the presence of the test compound to the lag time of the control. […] Inhibition (% Inucl'n) is listed as the percent reduction in the maximum observed turbidity in the control at the end of the assay time period. […]

Aβ peptide = Aβ peptide (Homo sapiens, UniProt P05067); details: Camilleri et al. (1994); cited from earlier work
Sequence of Aβ peptide (P05067 672-711 limits assumed): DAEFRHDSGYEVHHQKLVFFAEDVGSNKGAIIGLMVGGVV

T3 sequence (P05067 672-711): as the sequence (P05067 672-711 limits assumed) above
T2 sequence (P05067 672-711): as the sequence (P05067 672-711 limits assumed) above
T1 sequence (P05067 672-711): as the sequence (P05067 672-711 limits assumed) above

N-biotinyl-βAP1-40
aggregation of natural β-AP1-40 (turbidity, optical density at 400 nm) (natural β-AP (β-AP1-40); modulator at 1% in the natural β-AP1-40 solution): markedly inhibited | aggregation of natural β-AP1-40 (turbidity, optical density at 400 nm) (natural β-AP (β-AP1-40); modulator at 5% in the natural β-AP1-40 solution): similarly inhibited aggregation | aggregation of mixture with natural β-AP1-40 (high molecular weight aggregates on SDS-PAGE) (β-AP1-40; mixture of natural β-AP1-40 and modulator): reduced amounts of the peptide mixture associated into high molecular weight aggregates | self-aggregation of the modulator (high molecular weight aggregates on SDS-PAGE) (β-AP1-40; modulator alone, no natural β-AP): few if any high molecular weight aggregates were observed

CC(C)C[C@H](NC(=O)[C@@H](N)CCCCN)C(=O)N[C@H](C(=O)N[C@@H](Cc1ccccc1)C(=O)N[C@@H](Cc1ccccc1)C(=O)O)C(C)C [PPI-377, Aβ16-20]
Fold Increase in Lag Time (Aβ1-40 [1]; Table IV, 100 mole %): ~ 1 fold | ΔLag (ratio of lag time with test compound to lag time of control) (Aβ1-40 [1]; Table V, 100 mole % inhibitor relative to Aβ1-40): 1.1 | inhibition at 100 % (Aβ1-40 [2]): 0% | % Iext'n (percent reduction of thioflavin-T fluorescence) (Aβ1-40 [3]): 8%

OC[C@H]1O[C@@H]2O[C@H]3[C@H](O)[C@@H](O)[C@@H](O[C@H]4[C@H](O)[C@@H](O)[C@@H](O[C@H]5[C@H](O)[C@@H](O)[C@@H](O[C@H]6[C@H](O)[C@@H](O)[C@@H](O[C@H]7[C@H](O)[C@@H](O)[C@@H](O[C@H]8[C@H](O)[C@@H](O)[C@@H](O[C@H]1[C@H](O)[C@H]2O)O[C@@H]8CO)O[C@@H]7CO)O[C@@H]6CO)O[C@@H]5CO)O[C@@H]4CO)O[C@@H]3CO [β-cyclodextrin]
fibril formation in vitro (Aβ peptide): inhibit fibril formation in vitro
